“Also recorded” adds a separate entry of the source. Read-outs that look alike come from different tables or passages of the source.
Columns and labels:
[1] = in vivo; cited from earlier work
[2] = system: LN-229 human glioblastoma cells; conditions: for % cell death: 50 μM (single dose); for cell death: 25 and 50 μM, 72- and 96-hour time points
[3] = Stability in human blood (HPLC); assay type: in vitro ADME; conditions: 50 μM added, 48-hour incubation
Procedure: Aliquots of 50 μM PP1 and FF in DMSO were added to 500 μl to heparinized human blood to a final concentration of 50 μM. Following incubation at 37° C. for the indicated time points, the samples were frozen at −80° C., and later prepared for HPLC-based detection of the compounds. Please note that FF is converted to FA in the presence of human blood. […] Data represent average values with standard deviation (n=3). panel B: Water solubility. FF and PP1, were added to water to a final concentration of 50 mM and sonicated in an ultrasonic bath (Branson 1510 Digital Heated Ultrasonic bath) for one hour at room temperature. The samples were then centrifuged for 10 minutes at 16000×g, and the supernatant filtered through 0.45 μm syringe filter. […] The PPAR transcriptional activity was determined in HepG2 cells by the JsTkpGL3 reporter plasmid, which contains a firefly luciferase gene driven by the PPRE, which consists of three copies of the J site from the apo-AII gene promoter. […] The luciferase activity was detected with Dual-Luciferase reporter assay system (Promega, Madison, Wis.), and the resulting luminescence measured with Synergy 2 microplate reader (BioTek, Winooski, Vt.). […]
In this experiment, 50 μM of PP1 and 50 μM of FF were incubated with human blood at […], at indicated time points. […] In contrast, nearly 25 μM of PP1 was still detected at the 48-hour time point (FIG. 4A; left panel).

[4] = system: LN229 human glioblastoma cell line; test: Cell viability (MTT assay), LN229; assay type: cell-based
[5] = system: PPAR responsive elements (PPRE); test: PPAR luciferase assay (PPRE reporter) in HepG2 cells; assay type: cell-based; conditions: 25 μM, 24 hrs
Procedure: Aliquots of 50 μM PP1 and FF in DMSO were added to 500 μl to heparinized human blood to a final concentration of 50 μM. Following incubation at 37° C. for the indicated time points, the samples were frozen at −80° C., and later prepared for HPLC-based detection of the compounds. Please note that FF is converted to FA in the presence of human blood. […] Data represent average values with standard deviation (n=3). panel B: Water solubility. FF and PP1, were added to water to a final concentration of 50 mM and sonicated in an ultrasonic bath (Branson 1510 Digital Heated Ultrasonic bath) for one hour at room temperature. The samples were then centrifuged for 10 minutes at 16000×g, and the supernatant filtered through 0.45 μm syringe filter. Water solubilized PP1 and FF were subsequently processed for HPLC analysis (see Methods). Data represent average values with standard deviation (n=3). panel C: Effects of PP compounds on PPAR responsive elements (PPRE). The PPAR transcriptional activity was determined in HepG2 cells by the JsTkpGL3 reporter plasmid, which contains a firefly luciferase gene driven by the PPRE, which consists of three copies of the J site from the apo-AII gene promoter. To normalize for efficiency of transfection the cells were additionally transfected with the pSV40-GLuc (New England Biolabs, Ipswich, Mass.) control plasmid. […] The luciferase activity was detected with Dual-Luciferase reporter assay system (Promega, Madison, Wis.), and the resulting luminescence measured with Synergy 2 microplate reader (BioTek, Winooski, Vt.). Data represent average values with standard deviation (n=6).
PPAR Luciferase Assay—The PPAR transcriptional activity was determined by utilizing the JsTkpGL3 reporter plasmid, which contains a firefly luciferase gene driven by the PPAR responsive element (PPRE), which consists of three copies of the J site from the apo-AII gene promoter. Together with JsTkpGL3 plasmid HepG2 cells were transfected with pSV40-GLuc (New England Biolabs, Ipswich, Mass.) control plasmid expressing Gaussia luciferase under the control of the constitutive SV40 early promoter to normalize for efficiency of transfection. […] The luciferase activity was detected with Dual-Luciferase reporter assay system (Promega, Madison, Wis.), and the resulting luminescence measured with Synergy 2 microplate reader (BioTek, Winooski, Vt.).

[6] = Stability of stock solution in DMSO; assay type: physicochemical
LN-229 cells = test: Cell morphology, peroxisome accumulation in LN-229; assay type: cell-based, human; conditions: DMEM 1 g/L glucose, 10% FBS
Text: Red arrows indicated accumulation of peroxisomes (black dot-like structures) around the nucleus in PP3-treated cells but not in control (DMSO). (LN229 cells, DMEM 1 g/L glucose 10% FBS P/S).

SMILES: CC(C)(Oc1ccc(C(=O)c2ccc(Cl)cc2)cc1)C(=O)O [FA, fenofibric acid]
- crossing of the blood brain tumor barrier (BBTB) [1]: do not cross

SMILES: CC(C)OC(=O)C(C)(C)Oc1ccc(C(=O)c2ccc(Cl)cc2)cc1 [FF, fenofibrate, reference compound]
- % cell death ([2]; 48 hours): 24+/−4%
- % cell death ([2]; 72 hours): 90+/−1%
- % cell death ([2]; 96 hrs): 99+/−1.2%
- conversion to FA in human blood [3]: almost all FF was converted to FA

SMILES: CC(C)(C)OC(=O)NCCCCNC(=O)C(C)(C)Oc1ccc(C(=O)c2ccc(Cl)cc2)cc1 [H28]
- CV = Cell viability (% of control) ([4]; 1 μM, MTT): 92.75±3.59 % of control
- CV = Cell viability (% of control) ([4]; 5 μM, MTT): 65.90±2.82 % of control
- CV = Cell viability (% of control) ([4]; 10 μM, MTT): 38.31±3.50 % of control

SMILES: CN1CCN(C(=O)C(C)(C)Oc2ccc(C(=O)c3ccc(Cl)cc3)cc2)CC1.Cl [H35]
- CV = Cell viability (% of control) ([4]; 1 μM, MTT): 93.64±2.08 % of control
- CV = Cell viability (% of control) ([4]; 5 μM, MTT): 79.34±1.70 % of control
- CV = Cell viability (% of control) ([4]; 10 μM, MTT): 56.26±0.59 % of control

SMILES: CC(C)(Oc1ccc(C(=O)c2ccc(Cl)cc2)cc1)C(=O)N1CCC(N2CCOCC2)CC1 [H37, 2-[4-(4-chlorobenzoyl)phenoxy]-2-methyl-1-[4-(morpholin-4-yl)piperidin-1-yl]propan-1-one]
- CV = Cell viability (% of control) ([4]; 1 μM, MTT): 109.20±5.73 % of control
- CV = Cell viability (% of control) ([4]; 5 μM, MTT): 75.02±1.42 % of control
- CV = Cell viability (% of control) ([4]; 10 μM, MTT): 47.02±1.23 % of control

SMILES: CC(C)(Oc1ccc(C(=O)c2ccc(Cl)cc2)cc1)C(=O)N1CCC([NH+]2CCOCC2)CC1.[Cl-] [H38, 4-(1-{2-[4-(4-chlorobenzoyl)phenoxy]-2-methylpropanoyl}piperidin-4-yl)morpholin-4-iumchloride]
- CV = Cell viability (% of control) ([4]; 1 μM, MTT): 97.97±11.41 % of control
- CV = Cell viability (% of control) ([4]; 5 μM, MTT): 74.89±1.79 % of control
- CV = Cell viability (% of control) ([4]; 10 μM, MTT): 52.00±1.86 % of control

SMILES: CC(C)(Oc1ccc(C(=O)c2ccc(Cl)cc2)cc1)C(=O)N(CCO)CCO [H46]
- CV = Cell viability (% of control) ([4]; 1 μM, MTT): 103.00±2.98 % of control
- CV = Cell viability (% of control) ([4]; 5 μM, MTT): 86.15±8.50 % of control
- CV = Cell viability (% of control) ([4]; 10 μM, MTT): 51.97±10.27 % of control

SMILES: CC(C)OC(=O)C(C)(C)Oc1ccc(C(=O)c2ccccc2)cc1 [HR6]
- anti-glioblastoma activity / relative potency ([4]; 25 μM, 72 hrs, MTT): virtually inactive

SMILES: CC(C)OC(=O)C(C)(C)Oc1cccc(C(=O)c2ccccc2)c1 [HR7]
- anti-glioblastoma activity / relative potency ([4]; 25 μM, 72 hrs, MTT): virtually inactive

SMILES: CC(C)OC(=O)C(C)(C)Oc1ccc(C(=O)c2ccc(F)cc2)cc1 [HR8]
- anti-glioblastoma activity / relative potency ([4]; 25 μM, 72 hrs, MTT): virtually the same activity (CV) as FF

SMILES: CN(CCO)C(=O)C(C)(C)Oc1ccc(C(=O)c2ccc(F)cc2)cc1 [HR9]
- anti-glioblastoma activity / relative potency ([4]; 25 μM, 72 hrs, MTT): lower potency than PP1

SMILES: CC(C)(Oc1ccc(C(=O)c2ccc(F)cc2)cc1)C(=O)N1CCCCC1 [HR11]
- anti-glioblastoma activity / relative potency ([4]; 25 μM, 72 hrs, MTT): slightly higher biological activity

SMILES: CC(Oc1ccc(C(=O)c2ccc(Cl)cc2)cc1)C(=O)N1CCC(O)CC1 (stereo not drawn) [HR21]
- cell death ([4]; 25 μM, 72 hrs): about 60%

SMILES: CC(Oc1ccc(C(=O)c2ccc(Cl)cc2)cc1)C(=O)N1CCCCC1 (stereo not drawn) [HR22]
- cell death ([4]; 25 μM, 72 hrs): about 60%

SMILES: CC(C)(Oc1ccc(C(=O)c2ccc(Cl)cc2)cc1)C(=O)NCCCCN [HR31]
- anti-glioblastoma activity / relative potency ([4]; 25 μM, 72 hrs, MTT): CV value similar to that of 25 μM FF

SMILES: CN1CCN(C(=O)C(C)(C)Oc2ccc(C(=O)c3ccc(Cl)cc3)cc2)CC1.Cl [HR35, 4-{2-[4-(4-chlorobenzoyl)phenoxy]-2-methylpropanoyl}6-8,13-20,24-26,28,34,38-1-methylpiperazin-1-ium chloride]
- anti-glioblastoma activity / relative potency ([4]; 25 μM, 72 hrs, MTT): more potent than its free base HR34

SMILES: CC(C)(Oc1ccc(C(=O)c2ccc(Cl)cc2)cc1)C(=O)N1CC[N+](C)(C)CC1 [HR36, 4-{2-[4-(4-chlorobenzoyl)phenoxy]-2-methylpropanoyl}-1,1-dimethylpiperazin-1-ium iodide]
- viability at 25 µM ([4]; Homo sapiens, LN-229, 25 μM, 72 hrs, MTT, read-out: CV = Cell viability (% of control)): 98%

SMILES: CC(C)(Oc1ccc(C(=O)c2ccc(Cl)cc2)cc1)C(=O)N1CCC(N2CCOCC2)CC1 [HR37, 2-[4-(4-chlorobenzoyl)phenoxy]-2-methyl-1-[4-(morpholin-4-yl)piperidin-1-yl]propan-1-one]
- anti-glioblastoma activity / relative potency ([4]; 25 μM, 72 hrs, MTT): more potent than its hydrochloric salt (HR38)

SMILES: CC(C)(Oc1ccc(C(=O)c2ccc(Cl)cc2)cc1)C(=O)NCCO [HR39]
- anti-glioblastoma activity / relative potency ([4]; 25 μM, 72 hrs, MTT): significantly less potent than PP1

SMILES: CC(C)(Oc1ccc(C(=O)c2ccc(Cl)cc2)cc1)C(=O)N1CCC(O)CC1 [HR41]
- anti-glioblastoma activity / relative potency ([4]; 25 μM, 72 hrs, MTT): less potent than PP1

SMILES: CC(C)(Oc1ccc(C(=O)c2ccc(Cl)cc2)cc1)C(=O)NCC(O)CO (stereo not drawn) [HR42]
- anti-glioblastoma activity / relative potency ([4]; 25 μM, 72 hrs, MTT): almost identical

SMILES: CC(C)(Oc1ccc(C(=O)c2ccc(Cl)cc2)cc1)C(=O)NC(CO)CO [HR43]
- anti-glioblastoma activity / relative potency ([4]; 25 μM, 72 hrs, MTT): almost identical

SMILES: CN(CC(O)CO)C(=O)C(C)(C)Oc1ccc(C(=O)c2ccc(Cl)cc2)cc1 (stereo not drawn) [HR44]
- anti-glioblastoma activity / relative potency ([4]; 25 μM, 72 hrs, MTT): more potent than the secondary amide HR39

SMILES: CC(C)(Oc1ccc(C(=O)c2ccc(Cl)cc2)cc1)C(=O)NC(CO)(CO)CO [HR45]
- anti-glioblastoma activity / relative potency ([4]; 25 μM, 72 hrs, MTT): slightly decreases the potency

SMILES: CC(C)(Oc1ccc(C(=O)c2ccc(Cl)cc2)cc1)C(=O)N(CCO)CCO [HR46]
- anti-glioblastoma activity / relative potency ([4]; 25 μM, 72 hrs, MTT): almost as potent as PP1

SMILES: CC(C)(Oc1ccc(C(=O)c2ccc(Cl)cc2)cc1)C(=O)Nc1ccccc1O [HR49, 2-(4-(4-chlorobenzoyl)phenoxy)-N-(2-hydroxyphenyl)-2-methylpropanamide]
- anti-glioblastoma activity / relative potency ([4]; 25 μM, 72 hrs, MTT): more potent than HR48
- IC50 ([4]; Homo sapiens, LN-229, LN229, read-out: IC50 concentration): < 10 µM

SMILES: CN1CCN(C(=O)C(C)(C)Oc2ccc(C(=O)c3ccc(Cl)cc3)cc2)CC1 [PP2, 2-[4-(4-chlorobenzoyl)phenoxy]-2-methyl-1-(4-methylpiperazin-1-yl)propan-1-one]
- cell death [2]: extensive cell death
- effect on PPAR responsive elements (PPRE) [5]: attenuate

SMILES: CN(CC(O)C(O)C(O)C(O)CO)C(=O)C(C)(C)Oc1ccc(C(=O)c2ccc(Cl)cc2)cc1 [PP3, 2-[4-(4-chlorobenzoyl)phenoxy]-N,2-dimethyl-N-[(2S,3R,4R,5R)-2,3,4,5,6-pentahydroxyhexyl]propenamide]
- cytostatic effect ([2]; 10 μM): cytostatic activity
- effect on PPAR responsive elements (PPRE) [5]: does not repress PPAR responsive elements; also recorded: does not share this PPAR-inhibitory activity
- stability dissolved in DMSO [6]: quite unstable
- accumulation of peroxisomes (LN-229 cells): extensive accumulation of peroxisomes

SMILES: CC(C)(Oc1ccc(C(=O)c2ccc(Cl)cc2)cc1)C(=O)N1CCC(N2CCOCC2)CC1 [PP4, 2-[4-(4-chlorobenzoyl)phenoxy]-2-methyl-1-[4-(morpholin-4-yl)piperidin-1-yl]propan-1-one]
- cell death [2]: extensive cell death
- effect on PPAR responsive elements (PPRE) [5]: attenuate

Reference: patent US20220304957A1, “ANTI-CANCER COMPOSITIONS AND METHODS OF USE” (Board of Supervisors of Louisiana State University and …, priority 2019, published 2022)
